# Experimental data taken from patent US10759831B2, “Peptide compound, production method therefor, and use thereof” (iNtRON Biotechnology, Inc., priority 2014, dated 2020).
# Like-named read-outs stand apart in the source and are kept apart here.
# How the values were obtained:
# [1] = test system: colon cancer cell line LS174T; assay: SRB cell viability assay, colon cancer cell line LS174T; assay type: cell-based; conditions: Homo sapiens, read-out: Growth inhibition value of cancer cell (IC50)
# Method: (§1) In detail, 190 μl of a cell suspension at a concentration of 3.5×10^4 cells/ml was inoculated in each well of a 96-well microplate. 0.8 μM, 4 μM, 20 μM, or 100 μM of Asperphenin was added to the cell culture medium, and cultured at a temperature of 37° C. for 72 hours under the condition of 5% CO2. After incubation, 50 μl of 50% (v/v) trichloroacetic acid solution (Sigma Aldrich) was added to each well, and then, incubated at a temperature of 4° C. for 30 minutes, to thereby fix the cells thereto. The fixed cells were washed with water five times, and then, dried in the air.
# (§2) Next, 80 μl of a 0.4% (w/v) SRB aqueous solution (Sigma Aldrich) containing 1% (v/v) acetic acid (DUKSAN) was added to each well, incubated at room temperature for 1 hour to stain cells therein, and the stained cells washed with water and dried. The cells were dissolved by adding 200 μl of 10 mM Tris (pH 10.0) (Sigma Aldrich) to each well, and then, the number of living cells was calculated by measuring the absorbance thereof at 515 nm. […]
# (§3) From the colon cancer cell lines HCT116 (ATCC), HCT15 (Korean Cell Line Bank), LS174T (Korean Cell Line Bank), RKO(ATCC), and SW480(ATCC), cell growth inhibition concentrations (IC50, μM) were calculated as described in Example 2-1, and the results are shown in Table 4. […]
# [2] = test system: apoptosis-related proteins in RKO cells; assay: Immunoblotting of apoptosis-related proteins; assay type: cell-based, human
# Method: (§4) As described in Example 2-3, cells were obtained in a way that Asperphenin B at the concentration of 0.625 μM, 1.25 μM, 2.5 μM, 5 μM, or 10 μM was added to the RKO cells, and then, cultured for 48 hours. However, cells were obtained in a way that Asperphenin B at the concentration of 5 μM was added to the RKO cells, and then, cultured for 0 to 48 hours. Then, proteins were obtained from the obtained cells.
# Also, regarding the expression of apoptosis-related proteins, anti-ATM antibody (Cell Signaling Technology), anti-p-Chk (Thr68) antibody (Cell Signaling Technology), anti-Chk antibody (Cell Signaling Technology), anti-p-H2AX antibody (Cell Signaling Technology), anti-p53 antibody (Santa Cruz), anti-Bax antibody (Santa Cruz), anti-BID antibody (Cell Signaling Technology), anti-Caspase-8 antibody (Cell Signaling Technology), anti-Caspase-3 antibody (Cell Signaling Technology), anti-Caspase-9 antibody (Cell Signaling Technology), anti-cleaved PARP antibody (BD Biosciences), and anti-β-actin antibody (Santa Cruz) were used, to thereby perform immunoblotting.
# RKO cells = assay: ROS production, DCFH-DA flow cytometry; assay type: cell-based, human; conditions: 24 hours
# Method: In detail, as described in Example 2-3, Asperphenin B at the concentration of 2.5 μM, 5 μM, or 10 μM wad added to the RKO cells. Cells were collected after the RKO cells were cultured for 24 hours. In addition, a cell group in which 5 mM of N-acetylcysteine (NAC) (Sigma Aldrich), which is an antioxidant, was added to 5 μM and […] of Asperphenin B was prepared as a comparative group, whereas a cell group in which none of Asperphenin B and NAC was contained as a control.
# Afterwards, 2′,7′-dichlorofluorescin diacetate (DCFH-DA) (Sigma Aldrich) having a final concentration of 20 μM was added to the cell culture medium, and then, cultured at a temperature of 37° C. for 30 minutes under the condition of 5% CO2. Cells attached to the cell medium and cells not attached to the cell medium were all collected, washed with cold PBS twice, and then, suspended again in 1 ml of PBS to measure intensity of 2′,7′-dichlorofluorescin (DCF) by using a BD FACSCalibur flow cytrometer (manufactured by BD Biosciences).
# [3] = test system: cell cycle-related proteins in RKO cells; assay: Immunoblotting of cell cycle-related proteins; assay type: cell-based, human
# Method: as §4
# Regarding the expression of the cell cycle-related proteins, anti-p-cyclin B1(Ser147) antibody (Cell Signaling Technology), anti-cyclin B1 antibody (Santa Cruz), anti-p-cdc2(Tyr15) antibody (Cell Signaling Technology), anti-cdc2 antibody (Santa Cruz), and anti-β-actin antibody (Santa Cruz) were used to perform immunoblotting thereon.
# [4] = test system: colon cancer cell line HCT116; assay: SRB cell viability assay, colon cancer cell line HCT116; assay type: cell-based; conditions: Homo sapiens, HCT-116
# Method: (§5) Regarding a lung cancer cell line A549 (Korean Cell line Bank), a colon cancer cell line HCT116 (ATCC), a stomach cancer cell line SNU638 (Korean Cell Line Bank), a liver cancer cell line SK-HEP-1 (Korean Cell line Bank), and a breast cancer cell line MDA-MB-231 (Korean Cell line Bank), a sulforhodamine B (SRB) assay which is a method of measuring cell viability was used for measuring apoptosis effects of Asperphenin.
# as §1
# (§6) Next, 80 μl of a 0.4% (w/v) SRB aqueous solution (Sigma Aldrich) containing 1% (v/v) acetic acid (DUKSAN) was added to each well, incubated at room temperature for 1 hour to stain cells therein, and the stained cells washed with water and dried. The cells were dissolved by adding 200 μl of 10 mM Tris (pH 10.0) (Sigma Aldrich) to each well, and then, the number of living cells was calculated by measuring the absorbance thereof at 515 nm. The concentration of the compound inhibiting cell growth to 50% based on the number of the living cells, i.e., 50% inhibition concentration (IC50) was calculated, and the results are shown in Table 3. Here, as a positive control, etoposide (Sigma Aldrich) was used.
# From the colon cancer cell lines HCT116 (ATCC), HCT15 (Korean Cell Line Bank), LS174T (Korean Cell Line Bank), RKO(ATCC), and SW480(ATCC), cell growth inhibition concentrations (IC50, μM) were calculated as described in Example 2-1, and the results are shown in Table 4. Here, as a positive control, paclitaxel (Sigma Aldrich) was used.
# [5] = test system: lung cancer cell line A549; assay: SRB cell viability assay, lung cancer cell line A549; assay type: cell-based; conditions: Homo sapiens; A549, 72 hours; read-out: Cell growth inhibition concentration (IC50)
# Method: as §5, §1, §6
# [6] = test system: breast cancer cell line MDA-MB-231; assay: SRB cell viability assay, breast cancer cell line MDA-MB-231; assay type: cell-based; conditions: Homo sapiens; MDA-MB-231, 72 hours; read-out: Cell growth inhibition concentration (IC50)
# Method: as §5, §1, §6
# [7] = test system: colon cancer cell line SW480; assay: SRB cell viability assay, colon cancer cell line SW480; assay type: cell-based; conditions: Homo sapiens, read-out: Growth inhibition value of cancer cell (IC50)
# Method: as §1, §2, §3
# [8] = test system: stomach cancer cell line SNU638; assay: SRB cell viability assay, stomach cancer cell line SNU638; assay type: cell-based; conditions: Homo sapiens, SNU-638; SNU638, 72 hours; read-out: Cell growth inhibition concentration (IC50)
# Method: as §5, §1, §6
smiles,measurement,setting,value
CCCCCCCCC[C@@H](O)CC(=O)N[C@@H](CC(N)=O)C(=O)N[C@@H](CCC(N)=O)C(=O)N[C@H](CC(=O)c1cc(C)cc(O)c1C(=O)c1c(O)cccc1O)CC(C)C [Asperphenin B],IC50,[1],1.84 µM
same,Expression of p53 and Bax,"[2]; 5 μM, 0 to 48 hours, FIG. 6B",increased in a time-dependent manner
same,"Expression of p-Chk2 (Thr68), p-H2AX (Ser139), cleaved caspase-8, cleaved caspase-9, cleaved caspase-3, and PARP","[2]; 5 μM, 48 hours, FIG. 6B",increased
same,Expression of ATM protein,"[2]; 48 hours, 0.625-10 μM, FIG. 6A",increased in a concentration-dependent manner
same,Expression of p53 protein,"[2]; 48 hours, 0.625-10 μM, FIG. 6A",increased in a concentration-dependent manner
same,"Chk2 and H2AX, sub-regulatory factors of ATM","[2]; 48 hours, FIG. 6A",phosphorylated to be activated
same,"Cleavage of Bid, caspase-8, caspase-9, caspase-3 and PARP","[2]; 48 hours, FIG. 6A",induced
same,Expression of Bax,"[2]; 48 hours, FIG. 6A",increased expression
same,Production of ROS relative to the control,RKO cells,about 2.4 times
same,Ratio of cells producing ROS,RKO cells; 2.5 μM,8.14%
same,Ratio of cells producing ROS,RKO cells; 5 μM,13.86%
same,Ratio of cells producing ROS,RKO cells; 5 μM Asperphenin B + 5 mM NAC,1.41%
same,Ratio of cells producing ROS,RKO cells; 10 μM,14.26%
same,Ratio of cells producing ROS,RKO cells; 10 μM Asperphenin B + 5 mM NAC,2.55%
same,Expression of p-cdc2 (Tyr15) protein,"[3]; 5 μM, 0 to 48 hours, FIG. 5B",increased in time-dependent manner
same,Expression of p-cyclin B1 (Ser147),"[3]; 5 μM, 0 to 48 hours, FIG. 5B",highest at about 24 hours
same,Expression of non-active p-cyclin B1 (Ser147) protein,"[3]; 48 hours, 2.5 μM, FIG. 5A",increased
same,Expression of p-cyclin B1 (Ser147) protein and cyclin B1 protein,"[3]; 48 hours, 5 μM and 10 μM, FIG. 5A",decreased
same,Expression of non-active p-cdc2 (Tyr15) protein,"[3]; 48 hours, 0.625-10 μM, FIG. 5A",increased in a concentration-dependent manner
same,IC50,"[4]; HCT116, 72 hours, Table 3, read-out: Cell growth inhibition concentration (IC50)",2.6 µM
same,IC50,"[4]; HCT116, Table 4, read-out: Growth inhibition value of cancer cell (IC50)",4.05 µM
same,IC50,[5],41.8 µM
same,IC50,[6],6 µM
same,IC50,[7],31.4 µM
same,IC50,[8],11.7 µM
